Experimental data as given in patent publication EP4803520A1, “COMPOUND CONTAINING FUSED BICYCLIC RING, PHARMACEUTICAL COMPOSITION, AND USE THEREOF” (priority 2023, dated 2025).

Tested on: MDA-MB-436 cells
Test: Assay on inhibitory activity for MDA-MB-436 cell proliferation (CCK-8)
Format: cell-based
Details: 168 h of incubation, CCK-8, absorbance at 450 nm
Method: MDA-MB-436 cells in a good growth state were collected into a centrifuge tube, adjusted to a cell density of 2 × 10^4 cells/mL using a complete medium (DMEM high glucose + 10% FBS + 1× insulin-transferrin-selenium (ITS-G) + 16 µg/mL reduced glutathione), and seeded in a 96-well plate (100 µL/well), and the plate was incubated overnight in a cell incubator. Compounds were added using a pipettor, such that the final concentrations of the compounds were 400 nM-0.02 nM. The wells were set in duplicate, and a control well was set. After 168 h of incubation in the cell incubator, the assay reagent CCK-8 (manufacturer: Dojindo Laboratories, Beijing; 10 µL/well) was added. After 1.5 h of incubation in the cell incubator, the absorbance values were measured at 450 nm on a PerkinElmer Envision microplate reader. […] Inhibitory activity results for DA-MB-436 cell proliferation of compounds

IC50 (Homo sapiens, MDA-MB-436) [nM] | IC50 [nM] | Structure (SMILES)
– | ≤ 50 | CCc1cc2ccc(CN3CC(N4Cc5cn(C(=O)NC)nc5C4)C3)cc2[nH]c1=O [Compound 1]
– | ≤ 50 | CCc1cc2ccc(CN3CC(N4Cc5cn(C(=O)NC6CC6)nc5C4)C3)cc2[nH]c1=O [Compound 4]
– | ≤ 50 | CCc1cc2ccc(CN3CC(N4Cc5cn(C(=O)NC(C)C)nc5C4)C3)cc2[nH]c1=O [Compound 9]
– | ≤ 50 | CCc1cc2ncc(CN3CC(N4Cc5cn(C(=O)NC)nc5C4)C3)cc2[nH]c1=O [Compound 10]
– | ≤ 50 | CCNC(=O)n1cc2c(n1)CN(C1CN(Cc3ccc4cc(CC)c(=O)[nH]c4c3)C1)C2 [Compound 13]
– | ≤ 50 | CCc1cc2c(F)cc(CN3CC(N4Cc5cn(C(=O)NC)nc5C4)C3)cc2[nH]c1=O [Compound 16]
≤ 50 | – | CCc1cc2ccc(CN3CC(N4Cc5cn(C(=O)N[C@@H]6CCOC6)nc5C4)C3)cc2[nH]c1=O [Compound 17]
≤ 50 | – | CCc1cc2cc(F)c(CN3CC(N4Cc5cn(C(=O)NC)nc5C4)C3)cc2[nH]c1=O [Compound 18]
≤ 50 | – | CNC(=O)n1cc2c(n1)CN(C1CN(Cc3ccc4cc(C)c(=O)[nH]c4c3)C1)C2 [Compound 22]
≤ 50 | – | Cc1cc2ccc(CN3CC(N4Cc5cn(C(=O)NC6CC6)nc5C4)C3)cc2[nH]c1=O [Compound 23]

The remaining lines, values behind:

Structure (SMILES) | IC50 (Homo sapiens, MDA-MB-436) [nM] | IC50 [nM]
CNC(=O)n1cc2c(n1)CN(C1CN(Cc3ccc4cc(C(F)(F)F)c(=O)[nH]c4c3)[C@@H]1C)C2 (single isomer, unassigned) [Compound 35] | ≤ 50 | –
CNC(=O)n1cc2c(n1)CN(C1CN(Cc3ccc4cc(C5CC5)c(=O)[nH]c4c3)[C@@H]1C)C2 (single isomer, unassigned) [Compound 40] | ≤ 50 | –
CNC(=O)n1cc2c(n1)CN(C1CN(Cc3ccc4cc(C5CC5)c(=O)[nH]c4c3)C1)C2 [Compound 2] | ≤ 50 | –
CCc1cc2ncc(CN3CC(N4Cc5cn(C(=O)NC6CC6)nc5C4)C3)cc2[nH]c1=O [Compound 5] | – | ≤ 50
CCc1cc2ncc(CN3CC(N4Cc5nc(C(=O)NC)sc5C4)C3)cc2[nH]c1=O [Compound 7] | – | ≤ 50
O=C(NC1CC1)n1cc2c(n1)CN(C1CN(Cc3ccc4cc(C5CC5)c(=O)[nH]c4c3)C1)C2 [Compound 11] | – | ≤ 50
CNC(=O)n1cc2c(n1)CN(C1CN(Cc3ccc4c5c(c(=O)[nH]c4c3)CCC5)C1)C2 [Compound 15] | – | ≤ 50
CCc1cc2ccc(CN3CC(N4Cc5nc(C(=O)NC)sc5C4)C3)cc2[nH]c1=O [Compound 19] | ≤ 50 | –
CCc1cc2c(F)cc(CN3CC(N4Cc5cn(C(=O)NC6CC6)nc5C4)C3)cc2[nH]c1=O [Compound 20] | ≤ 50 | –
CCc1cc2c(F)cc(CN3CC(N4Cc5nc(C(=O)NC)sc5C4)C3)cc2[nH]c1=O [Compound 21] | ≤ 50 | –
